In article PMC9995496, “A screen for MeCP2-TBL1 interaction inhibitors using a luminescence-based assay” (Scientific Reports, 2023):
Where a name gives a salt, the structure may show the parent alone. Numbered stars: 1 amine (or outer) side, 2 acyl side, 3 side chain; on linkers, the order of the positions; unused ones are H or OH. Bridge positions count the residues as written; N and C are the ends. Square brackets hold non-standard residues; d marks the D form. Peptide text beside a SMILES is read from it. * marks the point of attachment. pTerphenylCO(4''-OnC5H11) = CCCCCOc1ccc(-c2ccc(-c3ccc(C(=O)*)cc3)cc2)cc1; Orn(4R-OH,5R-OH) = O=C([C@H](C[C@@H](O)[C@@H](O)N[*:3])N[*:1])[*:2]; hTyr(3S-OH,4S-OH) = N[C@H](C(=O)O)[C@H](O)[C@@H](O)c1ccc(O)cc1; Pro(3S-OH,4S-Me) = C[C@H]1CN[C@H](C(=O)O)[C@H]1O; Hyp = O=C(O)[C@@H]1C[C@@H](O)CN1

Each compound was assayed on PRKACA-PRKAR2A interaction (SmBiT-PRKACA / LgBiT-PRKAR2A), protein kinase A. Details: 0.5 h, 20 µM; inhibitor.
Set-up: NanoLuc complementation counter-screen in cell extract, PRKACA with PRKAR2A, loss of luminescence, detects NanoLuc interference
`Cc1cccc(C)c1NC1=NCCCS1` [UM0134421:02, Xylazine HCl] was tested, and the “Inh (PKA)” value was 1.103%.

Same assay, conditions: counter-screen for NanoLuc interference, 0.5 h, 20 µM, inhibitor, Inh (PKA)
In the case of `CC(=O)O[C@@]12CO[C@@H]1C[C@H](O)[C@@]1(C)C(=O)[C@H](O)C3=C(C)[C@@H](OC(=O)[C@H](O)[C@@H](NC(=O)OC(C)(C)C)c4ccccc4)C[C@@](O)([C@@H](OC(=O)c4ccccc4)[C@H]21)C3(C)C` [UM0141830:01, Docetaxel], the “Inh (PKA)” value is reported as 0.7441%.
With `O=C(O)Cc1ccccc1Nc1c(Cl)cccc1Cl` [UM0142522:01, Diclofenac] the “Inh (PKA)” value was 9.074%.
In the case of `COc1cc(Nc2ncc(F)c(Nc3ccc4c(n3)NC(=O)C(C)(C)O4)n2)cc(OC)c1OC` [UM0141915:01, R406 (free base)], the “Inh (PKA)” value is reported as 51.96%.
`CNCc1ccc(-c2[nH]c3cc(F)cc4c3c2CCNC4=O)cc1` [UM0142149:01, Rucaparib (free base)] was tested, and the “Inh (PKA)” value was 8.491%.
For `Nc1ccn([C@@H]2O[C@H](CO)[C@@H](O)C2(F)F)c(=O)n1` [UM0142041:01, Gemcitabine], the “Inh (PKA)” value was -0.03613%.
With `COc1cc2nccc(Oc3ccc(NC(=O)C4(C(=O)Nc5ccc(F)cc5)CC4)cc3)c2cc1OC` [UM0142237:01, Cabozantinib malate (XL184)] the “Inh (PKA)” value was 10.79%.

Same assay, conditions: counter-screen for NanoLuc interference; 0.5 h, 20 µM; inhibitor
For `Cn1c(N2CCCCS2(=O)=O)nc(C(=O)NCc2ccc(F)cc2)c(O)c1=O` [UM0141690:01, BMS-707035], the “Inh (PKA)” value was 4.266%.
For `Nc1ccn(C[C@@H](CO)OCP(=O)(O)O)c(=O)n1` [UM0141909:01, Cidofovir], the “Inh (PKA)” value was -0.4944%.
`CN1CCN(CCCN2c3ccccc3Sc3ccc(C(F)(F)F)cc32)CC1` [UM0118432:03, Trifluoperazine 2HCl] was tested, and the “Inh (PKA)” value was 8.71%.
In the case of `CC(C)c1nc(N(C)S(C)(=O)=O)nc(-c2ccc(F)cc2)c1/C=C/[C@@H](O)C[C@@H](O)CC(=O)O` [UM0142070:01, Rosuvastatin Calcium], the “Inh (PKA)” value is reported as 4.68%.
`Nc1ncc(-c2ccnc(Nc3ccncc3)n2)c(CC2CC2)n1` [UM0142752:01, PIK-III] was tested, and the “Inh (PKA)” value was 17.17%.
`CCN(CC)CCN(Cc1ccc(-c2ccc(C(F)(F)F)cc2)cc1)C(=O)Cn1c(SCc2ccc(F)cc2)nc(=O)c2c1CCC2` [UM0141541:01, Darapladib] was tested, and the “Inh (PKA)” value was 8.505%.
For `CCCCC1=NC2(CCCC2)C(=O)N1Cc1ccc(-c2ccccc2-c2nnn[nH]2)cc1` [UM0133057:02, Irbesartan], the “Inh (PKA)” value was 5.211%.
For `CCCCCCCCCCCCCCCc1cccc(O)c1C(=O)O` [UM0128565:02, Anacardic acid], the “Inh (PKA)” value was 5.402%.
In the case of `O=C1[C@@H]2[C@H]3CC[C@H](C3)[C@@H]2C(=O)N1C[C@@H]1CCCC[C@H]1CN1CCN(c2nsc3ccccc23)CC1` [UM0142271:01, Lurasidone HCl], the “Inh (PKA)” value is reported as 12.01%.
For `CC(C)(CO)c1cc2cc(NC(=O)C3(c4ccc5c(c4)OC(F)(F)O5)CC3)c(F)cc2n1C[C@@H](O)CO` [UM0141480:01, VX-661], the “Inh (PKA)” value was 12.93%.
For `Cn1nnc2c(C(N)=O)ncn2c1=O` [UM0135509:03, Temozolomide], the “Inh (PKA)” value was 1.163%.
In the case of `Cc1cc(C(N)=O)ccc1-n1c(CCC(=O)O)ccc1-c1ccc(-n2ccnc2)cc1` [UM0142172:01, N6022], the “Inh (PKA)” value is reported as 4.784%.
In the case of `COc1ccc(CCc2nc3cc(-c4c(C)noc4C)ccc3n2C[C@H](C)N2CCOCC2)cc1Cl` [UM0141843:01, SGC-CBP30], the “Inh (PKA)” value is reported as 18.44%.
For `O=C1C2CCN(CC2)C1(CO)CO` [UM0141841:01, PRIMA-1], the “Inh (PKA)” value was 1.308%.
In the case of `CNC(=O)c1ccc(N2C(=S)N(c3cnc(C#N)c(C(F)(F)F)c3)C(=O)C23CCC3)cc1F` [UM0142016:01, ARN-509], the “Inh (PKA)” value is reported as 2.375%.
With `CN1CCC(=C2c3ccccc3CC(=O)c3sccc32)CC1` [UM0133795:02, Ketotifen Fumarate] the “Inh (PKA)” value was 5.692%.
`O=C(c1ccc(/C=C/c2n[nH]c3ccccc23)cc1)N1CCNCC1` [UM0141720:01, KW 2449] was tested, and the “Inh (PKA)” value was 34.71%.
For `COc1cc2ncnc(Nc3ccc(O)c(Br)c3)c2cc1OC` [UM0127876:02, WHI-P154], the “Inh (PKA)” value was 9.14%.
`C[C@H]1[C@@H](O)O[C@@H]2O[C@@]3(C)CC[C@H]4[C@H](C)CC[C@@H]1[C@@]24OO3` [UM0142853:01, Dihydroartemisinin] was tested, and the “Inh (PKA)” value was 0.1421%.
For `C/C=C1\[C@H]2C=C(C)C[C@]1(N)c1ccc(=O)[nH]c1C2` [UM0133189:02, (-)-Huperzine A], the “Inh (PKA)” value was 0.2799%.
With `C=C1C(=O)O[C@@H]2/C=C(\C)CC/C=C(\C)CC[C@@H]12` [UM0141534:01, Costunolide] the “Inh (PKA)” value was 4.671%.
For `Nc1nccs1` [UM0120610:02, Aminothiazole], the “Inh (PKA)” value was 1.156%.
`NCC(=O)Nc1ccc(-n2nc(C(F)(F)F)cc2-c2ccc3c(ccc4ccccc43)c2)cc1` [UM0141487:01, OSU-03012 (AR-12)] was tested, and the “Inh (PKA)” value was 5.116%.
With `COC(=O)[C@]12CCC(C)(C)C[C@H]1[C@H]1C(=O)C=C3[C@@]4(C)C=C(C#N)C(=O)C(C)(C)[C@@H]4CC[C@@]3(C)[C@]1(C)CC2` [UM0141526:01, Bardoxolone methyl] the “Inh (PKA)” value was 12.18%.
In the case of `O=C(O)c1cc(O)c2c(c1)[C@H]([C@H]1c3cc(C(=O)O)cc(O)c3C(=O)c3c(O[C@@H]4O[C@H](CO)[C@@H](O)[C@H](O)[C@H]4O)cccc31)c1cccc(O[C@@H]3O[C@H](CO)[C@@H](O)[C@H](O)[C@H]3O)c1C2=O` [UM0142852:01, Sennoside A], the “Inh (PKA)” value is reported as 33.8%.
`CC1(C)CNc2cc(NC(=O)c3cccnc3NCc3ccncc3)ccc21` [UM0141862:01, Motesanib Diphosphate (AMG-706)] was tested, and the “Inh (PKA)” value was 38.44%.
With `Nc1nc(NC2CC2)cc(-c2cccc(Cl)c2Cl)n1` [UM0142662:01, TH588] the “Inh (PKA)” value was 10.71%.
With `O=C1NC(=O)C(c2ccccc2)(c2ccccc2)N1` [UM0142467:01, Phenytoin] the “Inh (PKA)” value was 11.36%.
With `CN1CCN(C(=O)c2ccc3cc(CCNc4ncnc5ccc(C#N)cc45)ccc3c2)CC1` [UM0142129:01, Senexin B] the “Inh (PKA)” value was 3.385%.
With `O=C(O)c1ccc(Nc2ncc3c(n2)-c2ccc(Cl)cc2C(c2c(F)cccc2F)=NC3)cc1` [UM0141711:01, MLN8054] the “Inh (PKA)” value was 70.21%.
For `CS(=O)(=O)Nc1ccc([N+](=O)[O-])cc1OC1CCCCC1` [UM0142773:01, NS 398], the “Inh (PKA)” value was 50.11%.
With `CCc1cccc2c3c([nH]c12)C(CC)(CC(=O)O)OCC3` (centres unmarked) [UM0142260:01, Etodolac] the “Inh (PKA)” value was 0.3149%.
With `O=C(O)c1cccc(-c2noc(-c3ccccc3F)n2)c1` [UM0142085:01, PTC124 (Ataluren)] the “Inh (PKA)” value was 9.195%.
For `CCCNC(=O)Nc1ccc(Oc2ncnc3cc(OC)c(OC)cc23)cc1Cl` [UM0141907:01, KRN 633], the “Inh (PKA)” value was 0.03165%.
`O=c1[nH]cc(F)c(=O)[nH]1` [UM0133724:03, Fluorouracil (Adrucil)] was tested, and the “Inh (PKA)” value was 1.181%.
For `O=C(Nc1c(Cl)cncc1Cl)c1ccc(OC(F)F)c(OCC2CC2)c1` [UM0141779:01, Roflumilast], the “Inh (PKA)” value was 21.52%.
In the case of `Cc1cc2c(F)c(Oc3ncnn4cc(OC[C@@H](C)O)c(C)c34)ccc2[nH]1` [UM0141474:01, Brivanib (BMS-540215)], the “Inh (PKA)” value is reported as 42.48%.
`Cc1ccc2nc(NC(=O)CSc3nc4c(c(=O)n3-c3ccccc3)SCC4)sc2c1` [UM0141565:01, IWP-2] was tested, and the “Inh (PKA)” value was 27.82%.
In the case of `CC(C)(C)C(O)/C(=C\c1ccc(Cl)cc1)n1cncn1` (centres unmarked) [UM0142839:01, Uniconazole], the “Inh (PKA)” value is reported as 40.56%.
With `CNCc1ccc(C)c(NC(=O)c2ccc(Nc3nc(-c4ccccc4)c4ccccc4n3)cc2)c1` [UM0141527:01, BMS-833923] the “Inh (PKA)” value was 45.75%.
In the case of `CN1CCCN(C(=O)c2cccc(-c3ccc(/C=C4/C(=O)Nc5ccc(Cl)cc54)o3)c2)CC1` [UM0141536:01, CX-6258], the “Inh (PKA)” value is reported as 48.23%.
`CC(NC(=O)c1ccccc1/N=C/c1c(O)ccc2ccccc12)c1ccccc1` (centres unmarked) [UM0141749:01, Sirtinol] was tested, and the “Inh (PKA)” value was 11.59%.
In the case of `Cc1cccc(C(C)c2c[nH]cn2)c1C` (centres unmarked) [UM0142219:01, Medetomidine HCl], the “Inh (PKA)” value is reported as 7.933%.
With `Cc1ccc(NCCCc2ccccc2)c(N)c1` [UM0142338:01, JSH-23] the “Inh (PKA)” value was 14.43%.
`O=c1[nH]c2ccccc2n1C1CCN(Cc2ccc(-c3[nH]c4cc5ncnc5cc4nc3-c3ccccc3)cc2)CC1` [UM0127809:02, AKT inhibitor VIII] was tested, and the “Inh (PKA)” value was 16.69%.
For `N#C[C@@H]1C[C@@H]2C[C@@H]2N1C(=O)[C@@H](N)C12CC3CC(CC(O)(C3)C1)C2` [UM0142110:01, Saxagliptin], the “Inh (PKA)” value was 1.3%.
`O=C(CSc1nc2c(c(=O)n1-c1ccccc1)SCC2)Nc1ccc(-c2ccccc2)cn1` [UM0142486:01, IWP-L6] was tested, and the “Inh (PKA)” value was 23.47%.
With `Cc1cc(NC(=O)c2cccc(NC(=O)/C=C/CN(C)C)c2)ccc1Nc1nccc(-c2cccnc2)n1` [UM0141569:01, JNK-IN-8] the “Inh (PKA)” value was 12.62%.
With `CCCCCOc1ccc(-c2ccc(-c3ccc(C(=O)N[C@H]4C[C@@H](O)[C@@H](O)NC(=O)[C@@H]5[C@@H](O)[C@@H](C)CN5C(=O)[C@H]([C@@H](C)O)NC(=O)[C@H]([C@H](O)[C@@H](O)c5ccc(O)cc5)NC(=O)[C@@H]5C[C@@H](O)CN5C(=O)[C@H]([C@@H](C)O)NC4=O)cc3)cc2)cc1` [UM0142187:01, Anidulafungin] ({pTerphenylCO(4''-OnC5H11)}-[Orn(4R-OH,5R-OH)]T[Hyp][hTyr(3S-OH,4S-OH)]T[Pro(3S-OH,4S-Me)]; lactam 1-C) the “Inh (PKA)” value was 1.476%.
For `CN(Cc1cnc2nc(N)nc(N)c2n1)c1ccc(C(=O)N[C@@H](CCC(=O)O)C(=O)O)cc1` [UM0133539:02, Methotrexate], the “Inh (PKA)” value was 2.622%.
`CN(C)c1ccc(/C=C2\C(=O)Nc3ccccc32)cc1` [UM0134350:02, SU 4312] was tested, and the “Inh (PKA)” value was 71.43%.
`Cn1cnc(N)c2ncnc1-2` [UM0142011:01, 3-Methyladenine] was tested, and the “Inh (PKA)” value was 0.4537%.
With `CC(C)(C)NC(=O)N[C@H](C(=O)N1C[C@H]2[C@@H]([C@H]1C(=O)NC(CC1CCC1)C(=O)C(N)=O)C2(C)C)C(C)(C)C` (some centres unmarked) [UM0141529:01, Boceprevir] the “Inh (PKA)” value was 1.202%.
With `CC(=O)Nc1nc(C)c(-c2ccc(Cl)c(S(=O)(=O)NCCO)c2)s1` [UM0141889:01, PIK-93] the “Inh (PKA)” value was 6.642%.
With `O=C(Nc1cnn2ccc(N3CCC[C@@H]3c3cc(F)ccc3F)nc12)N1CC[C@H](O)C1` [UM0142757:01, LOXO-101] the “Inh (PKA)” value was 0.6062%.
